Results on 10 molecules are retold here after ChEMBL document CHEMBL1144253, “Pyrimidine containing RSV fusion inhibitors” (Bioorg Med Chem Lett, 2005).

Each structure is given as a SMILES string.

What all share (assay type): functional, cell-based
For assay [1], the system named is HFF. As to the kind of experiment: Inhibitory concentration against human respiratory syncytial virus strain A2 in human foreskin fibroblasts.
The test system of another assay is Vero. As to the kind of experiment: Inhibitory concentration against herpes simplex 1 strain Patton in vero cells. To be noted: Chlorocebus sabaeus.
The subject of assay [2] is HFF. The assay is described as follows: Inhibitory concentration against human cytomegalovirus strain Ad169 in human foreskin fibroblasts.

For `NC(=O)CCCN(CCCC(N)=O)S(=O)(=O)c1cccc(Nc2nc(Nc3cccc(S(=O)(=O)N(CCCC(N)=O)CCCC(N)=O)c3)nc(Nc3ccc(-c4ccc(Nc5nc(Nc6cccc(S(=O)(=O)N(CCCC(N)=O)CCCC(N)=O)c6)nc(Nc6cccc(S(=O)(=O)N(CCCC(N)=O)CCCC(N)=O)c6)n5)cc4S(=O)(=O)O)c(S(=O)(=O)O)c3)n2)c1`, the IC50 – broadly, the concentration that inhibits the measured activity by half – in the assay on HFF [1] was 0.1 µM.

With `NC(=O)CN(CC(N)=O)S(=O)(=O)c1cccc(Nc2nc(Nc3cccc(S(=O)(=O)N(CC(N)=O)CC(N)=O)c3)nc(Nc3ccc(-c4ccc(Nc5nc(Nc6cccc(S(=O)(=O)N(CC(N)=O)CC(N)=O)c6)nc(Nc6cccc(S(=O)(=O)N(CC(N)=O)CC(N)=O)c6)n5)cc4S(=O)(=O)O)c(S(=O)(=O)O)c3)n2)c1` [RF-1461], the IC50 worked out at 7.72 µM with Vero, 2.55 µM in the assay on HFF [2] and 0.05 µM in the assay on HFF [1].

For the molecule `NC(=O)CN(CC(N)=O)S(=O)(=O)c1cccc(Nc2cc(Nc3ccc(-c4ccc(Nc5cc(Nc6cccc(S(=O)(=O)N(CC(N)=O)CC(N)=O)c6)nc(Nc6cccc(S(=O)(=O)N(CC(N)=O)CC(N)=O)c6)n5)cc4S(=O)(=O)O)c(S(=O)(=O)O)c3)nc(Cl)n2)c1`, the IC50 with Vero was found to be 18.9 µM; in the assay on HFF [2], 7 µM; in the assay on HFF [1], 1.8 µM.

As for `NC(=O)CN(CC(N)=O)S(=O)(=O)c1cccc(Nc2nc(Cl)cc(Nc3ccc(-c4ccc(Nc5cc(Cl)nc(Cl)n5)cc4S(=O)(=O)O)c(S(=O)(=O)O)c3)n2)c1`, the IC50 with Vero was found to be 47.2 µM; in the assay with HFF [2], 24.9 µM; in the assay with HFF [1], 16.7 µM.

`NC(=O)CCN(CCC(N)=O)S(=O)(=O)c1cccc(Nc2nc(Nc3cccc(S(=O)(=O)N(CCC(N)=O)CCC(N)=O)c3)nc(Nc3ccc(-c4ccc(Nc5nc(Nc6cccc(S(=O)(=O)N(CCC(N)=O)CCC(N)=O)c6)nc(Nc6cccc(S(=O)(=O)N(CCC(N)=O)CCC(N)=O)c6)n5)cc4S(=O)(=O)O)c(S(=O)(=O)O)c3)n2)c1` yielded an IC50 with HFF [1] of 0.08 µM.

For the molecule `NC(=O)CCN(CCC(N)=O)S(=O)(=O)c1cccc(Nc2nc(Cl)nc(Nc3ccc(-c4ccc(Nc5nc(Nc6cccc(S(=O)(=O)N(CCC(N)=O)CCC(N)=O)c6)nc(Nc6cccc(S(=O)(=O)N(CCC(N)=O)CCC(N)=O)c6)n5)cc4S(=O)(=O)O)c(S(=O)(=O)O)c3)n2)c1`, the figures for the IC50 in the assay on HFF [2] and in the assay on HFF [1] were 16.8 µM and 0.25 µM, respectively.

`O=S(=O)(O)c1cc(Nc2nc(Nc3cccc(S(=O)(=O)N(CCO)CCO)c3)nc(Nc3cccc(S(=O)(=O)N(CCO)CCO)c3)n2)ccc1-c1ccc(Nc2nc(Nc3cccc(S(=O)(=O)N(CCO)CCO)c3)nc(Nc3cccc(S(=O)(=O)N(CCO)CCO)c3)n2)cc1S(=O)(=O)O`: the half-maximal inhibitory concentration (IC50) in the assay with Vero amounted to 14.7 µM; in the assay with HFF [2], 2.3 µM; in the assay with HFF [1], 0.09 µM.

Take `NC(=O)CCN(CCC(N)=O)S(=O)(=O)c1cccc(Nc2nc(Nc3cccc(S(=O)(=O)N(CCC(N)=O)CCC(N)=O)c3)nc(Nc3ccc(/C=C/c4ccc(Nc5nc(Nc6cccc(S(=O)(=O)N(CCC(N)=O)CCC(N)=O)c6)nc(Nc6cccc(S(=O)(=O)N(CCC(N)=O)CCC(N)=O)c6)n5)cc4S(=O)(=O)O)c(S(=O)(=O)O)c3)n2)c1`: the IC50 with HFF [1] amounted to 0.15 µM.

Regarding `NC(=O)CN(CC(N)=O)S(=O)(=O)c1cccc(Nc2cc(Nc3ccc(-c4ccc(Nc5nc(Nc6cccc(S(=O)(=O)N(CC(N)=O)CC(N)=O)c6)ncc5Cl)cc4S(=O)(=O)O)c(S(=O)(=O)O)c3)nc(Cl)n2)c1`, the IC50 in the assay with Vero was 25.4 µM; with HFF [2] it was 13.8 µM; in the assay with HFF [1] it was 3.5 µM.

Take `O=S(=O)(O)c1cc(Nc2cc(Nc3cccc(S(=O)(=O)N(CCO)CCO)c3)nc(Nc3cccc(S(=O)(=O)N(CCO)CCO)c3)n2)ccc1-c1ccc(Nc2cc(Nc3cccc(S(=O)(=O)N(CCO)CCO)c3)nc(Nc3cccc(S(=O)(=O)N(CCO)CCO)c3)n2)cc1S(=O)(=O)O`: the figures for the half-maximal inhibitory concentration (IC50) with Vero, in the assay on HFF [2] and in the assay with HFF [1] were 16.8 µM, 4.4 µM and 0.82 µM, respectively.
